From patent publication US10829520B2, “Beta-hairpin peptidomimetics” (POLYPHOR AG, priority 2015, dated 2020)
Where a SMILES comes first, the peptide text is derived from it. Bridges are numbered along the chain shown (N, C = ends). Roman numbers before positions name the chains, in order. [ ]: non-standard residue; d: D form. Tle = CC(C)(C)[C@H](N)C(=O)O; dDab = NCC[C@@H](N)C(=O)O; hSer = N[C@@H](CCO)C(=O)O; Nle = CCCC[C@H](N)C(=O)O; Orn = NCCC[C@H](N)C(=O)O; Dab = NCC[C@H](N)C(=O)O; dAze = O=C(O)[C@H]1CCN1

Legend:
Format in all cases: cell-based
[1] = test system: human red blood cells (hRBC); experiment: Hemolysis of human red blood cells; conditions: red cells of human, 1 h
Summary of the method: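 Each peptide was tested at a single concentration, 100 μg/mL. Erythrocytes (20% v/v) were incubated 1 h at 37° C. under shaking at 300 rpm, centrifuged, and released hemoglobin measured at OD540. Controls were PBS containing 0.001% acetic acid (0%) and Triton X-100 (100%).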

[2] = test system: Acinetobacter baumannii DSM 30008; conditions: DSM 30008
Summary of the method: (§1)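 Minimal inhibitory concentrations were recorded in μg/mL after the strains grew 18-20 hours at 35° C with two-fold serial peptide dilutions. The medium was Mueller-Hinton II (cation-adjusted) with 0.002% Polysorbate 80, and the inoculum was about 10^6 CFU/mL.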

[3] = test system: Acinetobacter baumannii 872842; conditions: 872842
[4] = test system: Klebsiella pneumoniae 968733; conditions: 968733
[5] = test system: Klebsiella pneumoniae SSI #3010; conditions: SSI #3010
Summary of the method: as §1

[6] = test system: Pseudomonas aeruginosa ATCC 27853; conditions: ATCC 27853
Summary of the method: as §1

[7] = test system: Escherichia coli ATCC 25922; conditions: ATCC 25922
Summary of the method: as §1

Escherichia coli 926415 = conditions: 926415

Row | Structure (SMILES) | Hemolysis at 100 μg/mL [1]; 100 [%] | Acinetobacter baumannii DSM 30008 MIC [2] [µg/mL] | Acinetobacter baumannii 872842 MIC [3] [µg/mL] | Klebsiella pneumoniae 968733 MIC [4] [µg/mL] | Klebsiella pneumoniae SSI #3010 MIC [5] [µg/mL] | Pseudomonas aeruginosa ATCC 27853 MIC [6] [µg/mL] | Escherichia coli ATCC 25922 MIC [7] [µg/mL] | Escherichia coli 926415 MIC (Escherichia coli 926415) [µg/mL] | Hemolysis at 100 μg/mL ([1]; 100 μg/mL) [%]
1 | CC(C)C[C@@H]1NC(=O)[C@@H](CC(C)C)NC(=O)[C@H](CCN)NC(=O)[C@@H](NC(=O)[C@H](CCN)NC(=O)[C@@H](NC(=O)[C@H](CCN)NC(=O)CC[C@@H]2NC(=O)[C@H]([C@@H](C)O)NC(=O)[C@H](Cc3ccc(O)cc3)NC(=O)[C@H]([C@@H](C)O)NC(=O)[C@H](C(C)C)NC(=O)[C@@H]3CCCN3C(=O)[C@H]3CCN3C(=O)[C@H]([C@@H](C)O)NC(=O)[C@H](C)NC(=O)[C@H](C(C)(C)C)NC(=O)[C@H]([C@@H](C)O)NC(=O)[C@H](Cc3c[nH]c4ccccc34)NC(=O)[C@H]([C@@H](C)O)NC(=O)[C@@H]([C@H](C)O)NC2=O)[C@@H](C)O)CCNC(=O)[C@H]([C@@H](C)O)NC(=O)[C@H](CCN)NC(=O)[C@H](CCN)NC1=O [Ex. 100] (I: cyclo(AT[dAze]PVTYTE[dT]TWT[Tle]) / II: [Dab]T[Dab][Dab][Dab][dL]L[Dab][Dab]T; amide I:9-II:N; lactam II:4-II:C) | 2 | 0.0625 | 0.25 | 2 | 0.125 | 0.125 | 0.0625 | 0.5 | 
2 | CC(C)C[C@@H]1NC(=O)[C@@H](CC(C)C)NC(=O)[C@H](CCN)NC(=O)[C@@H](NC(=O)[C@H](CCN)NC(=O)[C@@H](NC(=O)[C@H](CCN)NC(=O)CC[C@@H]2NC(=O)[C@H](CCO)NC(=O)[C@H](Cc3ccc(O)cc3)NC(=O)[C@H]([C@@H](C)O)NC(=O)[C@H](C(C)C)NC(=O)[C@@H]3CCCN3C(=O)[C@@H](C)NC(=O)[C@H](CO)NC(=O)[C@H](C)NC(=O)[C@H](C(C)(C)C)NC(=O)[C@H](CCO)NC(=O)[C@H](Cc3c[nH]c4ccccc34)NC(=O)[C@H](CCO)NC(=O)[C@@H](CCN)NC2=O)[C@@H](C)O)CCNC(=O)[C@H]([C@@H](C)O)NC(=O)[C@H](CCN)NC(=O)[C@H](CCN)NC1=O [Ex. 102] (I: cyclo(AS[dA]PVTY[hSer]E[dDab][hSer]W[hSer][Tle]) / II: [Dab]T[Dab][Dab][Dab][dL]L[Dab][Dab]T; amide I:9-II:N; lactam II:4-II:C) | <1 | 0.0625 | 0.5 | 0.5 | 0.125 | 0.125 | 0.0625 | 0.25 | 
3 | CC(C)C[C@@H]1NC(=O)[C@@H](CC(C)C)NC(=O)[C@H](CCN)NC(=O)[C@@H](NC(=O)[C@H](CCN)NC(=O)[C@@H](NC(=O)[C@H](CCN)NC(=O)CC[C@@H]2NC(=O)[C@H](CCN)NC(=O)[C@H](Cc3ccc(O)cc3)NC(=O)[C@H]([C@@H](C)O)NC(=O)[C@H](C(C)C)NC(=O)[C@@H]3CCCN3C(=O)[C@@H](C)NC(=O)[C@H](CO)NC(=O)[C@H](C)NC(=O)[C@H](C(C)(C)C)NC(=O)[C@H](CCO)NC(=O)[C@H](Cc3c[nH]c4ccccc34)NC(=O)[C@H](CCO)NC(=O)[C@@H](CCN)NC2=O)[C@@H](C)O)CCNC(=O)[C@H]([C@@H](C)O)NC(=O)[C@H](CCN)NC(=O)[C@H](CCN)NC1=O [Ex. 103] (I: cyclo([dDab][hSer]W[hSer][Tle]AS[dA]PVTY[Dab]E) / II: [Dab]T[Dab][Dab][Dab][dL]L[Dab][Dab]T; amide I:14-II:N; lactam II:4-II:C) | 1 | 0.0625 | 0.25 | 0.0625 | 0.0625 | 0.125 | 0.625 | 0.125 | 
4 | CCCC[C@@H]1NC(=O)[C@@H]2CCCN2C(=O)[C@H]2CCCN2C(=O)[C@H](CO)NC(=O)[C@H](CO)NC(=O)[C@H](C(C)(C)C)NC(=O)[C@@H](NC(=O)[C@@H](N)Cc2c[nH]c3ccccc23)CSSC[C@@H](C(=O)N[C@@H](CCCN)C(=O)N[C@H](C)C(=O)N[C@H](CCN)C(=O)N[C@H]2CCNC(=O)[C@H]([C@@H](C)O)NC(=O)[C@H](CCN)NC(=O)[C@H](CCN)NC(=O)[C@H](CC(C)C)NC(=O)[C@@H](Cc3ccccc3)NC(=O)[C@H](CCN)NC2=O)NC(=O)[C@H](Cc2ccc(O)cc2)NC(=O)[C@H](CO)NC1=O [Ex. 104] (H-WC[Tle]SS[dP]P[Nle]SYC[Orn][dA][dDab][Dab][Dab][dF]L[Dab][Dab]T; disulfide 2-11; lactam 15-C) |  | 0.5 | 0.25 | 1 | 0.5 | 1 | 0.25 | 0.25 | 3
5 | CCCC[C@@H]1NC(=O)[C@@H]2CCCN2C(=O)[C@H]2CCCN2C(=O)[C@H](CO)NC(=O)[C@H](CO)NC(=O)[C@H](C(C)(C)C)NC(=O)[C@@H](NC(=O)[C@@H](N)Cc2c[nH]c3ccccc23)CSSC[C@@H](C(=O)N[C@@H](CCCN)C(=O)N[C@H](Cc2ccccc2)C(=O)N[C@H](CCN)C(=O)N[C@H]2CCNC(=O)[C@H]([C@@H](C)O)NC(=O)[C@H](CCN)NC(=O)[C@H](CCN)NC(=O)[C@H](CC(C)C)NC(=O)[C@@H](Cc3ccccc3)NC(=O)[C@H](CCN)NC2=O)NC(=O)[C@H](Cc2ccc(O)cc2)NC(=O)[C@H](CO)NC1=O [Ex. 105] (H-WC[Tle]SS[dP]P[Nle]SYC[Orn][dF][dDab][Dab][Dab][dF]L[Dab][Dab]T; disulfide 2-11; lactam 15-C) |  | 0.5 | 0.25 | 1 | 0.5 | 1 | 0.25 | 0.125 | 1.7
6 | CCCC[C@@H]1NC(=O)[C@@H]2CCCN2C(=O)[C@H]2CCCN2C(=O)[C@H](CO)NC(=O)[C@H](CO)NC(=O)[C@H](C(C)(C)C)NC(=O)[C@@H](NC(=O)[C@@H](N)Cc2c[nH]c3ccccc23)CSSC[C@@H](C(=O)N[C@H](CCN)C(=O)N[C@@H](CCN)C(=O)N[C@H](CCN)C(=O)N[C@H]2CCNC(=O)[C@H]([C@@H](C)O)NC(=O)[C@H](CCN)NC(=O)[C@H](CCN)NC(=O)[C@H](CC(C)C)NC(=O)[C@@H](Cc3ccccc3)NC(=O)[C@H](CCN)NC2=O)NC(=O)[C@H](Cc2ccc(O)cc2)NC(=O)[C@H](CO)NC1=O [Ex. 106] (H-WC[Tle]SS[dP]P[Nle]SYC[dDab][Dab][dDab][Dab][Dab][dF]L[Dab][Dab]T; disulfide 2-11; lactam 15-C) |  | 0.25 | 0.125 | 0.5 | 0.125 | 0.25 | 0.125 | 0.125 | 1
7 | CCCC[C@@H]1NC(=O)[C@@H]2CCCN2C(=O)[C@H]2CCCN2C(=O)[C@H](CO)NC(=O)[C@H](CO)NC(=O)[C@H](C(C)(C)C)NC(=O)[C@@H](NC(=O)[C@@H](N)Cc2c[nH]c3ccccc23)CSSC[C@@H](C(=O)N[C@@H](C(=O)N[C@@H](CCN)C(=O)N[C@H](CCN)C(=O)N[C@H]2CCNC(=O)[C@H]([C@@H](C)O)NC(=O)[C@H](CCN)NC(=O)[C@H](CCN)NC(=O)[C@H](CC(C)C)NC(=O)[C@@H](Cc3ccccc3)NC(=O)[C@H](CCN)NC2=O)[C@H](C)O)NC(=O)[C@H](Cc2ccc(O)cc2)NC(=O)[C@H](CO)NC1=O [Ex. 107] (H-WC[Tle]SS[dP]P[Nle]SYC[dT][Dab][dDab][Dab][Dab][dF]L[Dab][Dab]T; disulfide 2-11; lactam 15-C) |  | 0.0625 | 0.125 | 0.5 | 0.5 | 0.25 | 0.125 | 0.125 | 0.3
8 | CCCC[C@@H]1NC(=O)[C@@H]2CCCN2C(=O)[C@H]2CCCN2C(=O)[C@H](CO)NC(=O)[C@H](CO)NC(=O)[C@H](C(C)(C)C)NC(=O)[C@@H](NC(=O)[C@@H](N)Cc2c[nH]c3ccccc23)CSSC[C@@H](C(=O)N[C@@H](CCC(=O)O)C(=O)N[C@@H](CCN)C(=O)N[C@@H](CCN)C(=O)N[C@H]2CCNC(=O)[C@H]([C@@H](C)O)NC(=O)[C@H](CCN)NC(=O)[C@H](CCN)NC(=O)[C@H](CC(C)C)NC(=O)[C@@H](Cc3ccccc3)NC(=O)[C@H](CCN)NC2=O)NC(=O)[C@H](Cc2ccc(O)cc2)NC(=O)[C@H](CO)NC1=O [Ex. 108] (H-WC[Tle]SS[dP]P[Nle]SYCE[Dab][Dab][Dab][Dab][dF]L[Dab][Dab]T; disulfide 2-11; lactam 15-C) |  | 1 | 1 | 2 | 2 | 1 | 1 | 0.5 | 2
